Where “and” joins values, the source holds several entries; their conditions need not be identical. Identical values can stand only once. Entries after “also recorded” stand apart in the source; their conditions may differ.
What was measured:
fungus = experiment: Fungus growth on treated foods stored in closed containers at room temperature; settings: for Spoilage Time - Sample: Fungus;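 on Effectiveness on ginger: compared with untreated control ginger in closed containers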
Text: (§1) Most of the foods changed color or texture.
Glass jars and bottles were also used. The containers were snap-closed or with a lid.
(§2) These bags were sealed with a heat sealer.
The assembly was shaken periodically.

[1] = Color change / browning / yellowing of foods (keeping produce green longer); settings: for Change in color and softness: after 70 days
Procedure: All studies were conducted at a room temperature of about 25° C. To determine the effectiveness of a shelf-life extender, a control sample which was untreated with any shelf-life extenders, was tested identical to the test samples. […] All studies in those Examples of Tables 1-6 were conducted in closed plastic or glass containers. Containers, such as plastic containers, without or with lids having holes can be used if it is advantageous to let excess moisture escape or to prevent condensation of moisture released by some produce.
Food exposed to preservatives or by a sachet was placed in typically polystyrene or acrylic containers depending upon the size and number of food items. Glass jars and bottles were also used. The containers were snap-closed or with a lid. The containers were purchased mainly from Amazon or Webstaurant.com store. When needed, plastic containers with holes or without lids were used.
For controlled exposure and a constant supply of a preservative to foods, sachets containing one or more drops of preservatives were used. Sachets were made by placing an appropriate amount of a preservative in a plastic bag containing a piece of paper and heat sealing the bag. The sachet bag materials used were Tyvek® for solid preservative, polyethylene, polyester and high barrier multilayer films were used for liquid preservatives. These bags were sealed with a heat sealer. The sachet was typically applied on one side of the container containing food.
A piece of paper napkin was taped inside a 100 microns thick polyethylene or polyester Ziploc bag. The size of the bag varied from ˜20 cm×30 cm to ˜60 cm×90 cm depended on the sample with sandwich bags up to gallon bags being exemplary. The paper napkin was wetted with 0.1-0.5 ml of a preservative or a mixture of preservatives. A tray of aluminum, stainless steel or glass containing the foods was placed inside the plastic (polyethylene, polyester and multilayer-laminated) bag and almost closed by locking the Ziploc. Air was blown with an air blower from the unclosed end until the bag was fully blown and then quickly closed tightly by locking the remaining Ziploc. If a preservative was a sublimable solid, it was placed in a petri dish and then placed inside the bag in the tray before blowing air. The exposure time was varied from five minutes to a day depending upon the food. […] The assembly was shaken periodically. After the predetermined time, the tray containing produce was removed from the bag, allowed to de-gas for 10-30 minutes in air and the produce was then placed in an appropriately sized container. Glass and stainless steel containers with lids were also often used.
A solution of one or more preservatives was prepared in a large (e.g., 2-10 liter) glass beaker or a jar. A sack containing the food was prepared by placing the food in a plastic mesh bag. The sack was placed in the solution of the preservative. A smaller glass beaker containing proper amount of water was place over the package to keep the sack soaked in the solution of the preservative during the treatment. The solution was stirred either with a plastic spatula or with a magnet over a magnetic stirrer. After treatment, the mesh sack was removed, the produce was washed in a tray with running water, strained and air dried at 30° C. in an air blowing oven for about 5-10 minutes, while shaking the tray or turning the food periodically followed by placing the sample in an appropriate container.
The food was placed in mesh trays and sprayed with an aqueous solution (1-10%) of a preservative while shaking the tray or turning the food. The solution was allowed to drain from the tray and the food was air dried in an air blowing oven at 30° C. for about 5-10 minutes, while shaking the tray or turning food periodically followed by placing the sample in an appropriate container.

[2] = Curdling / cream / solidification of milk
Text: as §1

[3] = Odor and softening/mushiness of pre-soaked grains; settings: Odor, White rice, control 5 days
Text: as §1, §2

[4] = Gas formation (gassed dome) of fresh juice; settings: Example 65, Orange juice, 0.02 g, control 4 days
Text: as §1

yeast = experiment: Rising of dough; settings: Example 74; Freshly prepared dough for bread; 1% in 100 g flour
Text: On a control sample of freshly prepared dough, rising could continuously be observed throughout the day.

[5] = Color loss of meat and fish; settings: meat and fish
Text: as §1, §2

[6] = General shelf-life extension of foods (spoilage criteria of Example 9)

C=CCN=C=S [AI, allyl isothiocyanate]
Fungus growth (fungus; Example 12, Paneer (Indian cottage cheese), sachet): > 10 days
Spoilage Time - Sample (fungus; Example 20, Apple juice, 0.02 g, control 7 days): 13 days
Spoilage Time - Sample (fungus; Example 21, Beet juice, 0.02 g, control 7 days): 13 days
Spoilage Time - Sample (fungus; Example 22, Blueberries, 16 hrs P-E, control 3 days): 24 days
Spoilage Time - Sample (fungus; Example 25, Broccoli, 0.25 hr P-E, control 6 days): 9 days
Spoilage Time - Sample (fungus; Example 26, Broccoli, Sachet, control 6 days): 9 days
Spoilage Time - Sample (fungus; Example 27, Broccoli, 2 hrs P-E, control 5 days): 16 days
Spoilage Time - Sample (fungus; Example 28, Carrot juice, 0.02 g, control 12 days): 13 days
Spoilage Time - Sample (fungus; Example 30, Chickpeas, Sachet, control 7 days): 9+ days
Spoilage Time - Sample (fungus; Example 33, Fresh, raw, shelled undried peanuts, Sachet, control 18 days): 46 days
Spoilage Time - Sample (fungus; Example 33, Fresh, raw, shelled undried peanuts, Sachet, control 18 days, listed as allyl isothiocyanate): significantly delayed or prevented
Spoilage Time - Sample (fungus; Example 35, 5.3% Gelatin, 175 bloom in water, Sachet, control 9 days): 47 days
Spoilage Time - Sample (fungus; Example 37, 4% Guar Gum in water, Sachet, control 5 days): 47 days
Spoilage Time - Sample (fungus; Example 39, Guar beans, 2 hrs P-E, control 6 days): 17 days
Spoilage Time - Sample (fungus; Example 40, Honeydew juice, 0.02 g, control 12 days): 30 days
Spoilage Time - Sample (fungus; Example 42, Lychee, 0.5 hr P-E, control 7 days): 11 days
Spoilage Time - Sample (fungus; Example 44, Mixed Legumes, 64 hrs P-E, 6 hrs soaking, control 11 days): 17 days
Spoilage Time - Sample (fungus; Example 45, Monterey cheese, Sachet, control 7 days): 10+ days
Spoilage Time - Sample (fungus; Example 45, Monterey cheese, Sachet, control 7 days, listed as allyl isothiocyanate): > 10 days
Spoilage Time - Sample (fungus; Example 47, Pomegranate juice, 0.02 g, control 7 days): 13 days
Spoilage Time - Sample (fungus; Example 48, Puri (Indian fried bread), 16 hrs P-E, control 5 days): 70+ days
Spoilage Time - Sample (fungus; Example 49, Raspberry, 1 hr P-E, control 5 days): 9 days
Spoilage Time - Sample (fungus; Example 50, Raspberry, 0.33 hr P-E, control 5 days): 31 days
Spoilage Time - Sample (fungus; Example 51, Raw milk cheddar cheese, 1 hr P-E & Sachet, control 6 days): 35 days
Spoilage Time - Sample (fungus; Example 53, Rotala (Indian millet bread), 16 hrs P-E, control 5 days): 70+ days
Spoilage Time - Sample (fungus; Example 56, 26.7% Starch solution in water, 0.25 ml of 0.42% solution, control 5 days): 47 days
Spoilage Time - Sample (fungus; Example 57, 26.7% Starch solution in water, Sachet, control 5 days): 47 days
Spoilage Time - Sample (fungus; Example 58, Strawberries, 5 hrs P-E, control 2 days): 15 days
Spoilage Time - Sample (fungus; Example 59, Tindora, 2 hrs P-E, control 6 days): 40 days
Spoilage Time - Sample (fungus; Example 60, Tofu, Sachet, control 6 days): 9+ days
Spoilage Time - Sample (fungus; Example 60, Tofu, Sachet, control 6 days, listed as allyl isothiocyanate): > 9 days
Spoilage Time - Sample (fungus; Example 62, Unshelled peanuts, 5 ml of 0.42% solution, control 5 days): 8 days
Spoilage Time - Sample (fungus; Example 62, Unshelled peanuts, 5 ml of 0.42% solution, control 5 days, listed as allyl isothiocyanate): either prevented or significantly delayed
Spoilage Time - Sample (fungus; Example 63, Wild Rice, 5 ml of 10% allyl isothiocyanate solution in water, control 11 days): 21 days
Spoilage Time - Sample (fungus; Example 64, Wild Rice, Sachet, control 11 days): 21 days
Spoilage Time - Sample (fungus; Example 89, Mixed Legumes, AI & Humidity, 64 hrs P-E AI, 6 hrs soaking in water, control 11 days): 17 days
Fungus growth (fungus; Indian millet bread, Indian wheat bread (roti), cheesecake, sachet or pre-exposure to vapors): either prevented or significantly delayed
Effectiveness in preventing fungus (fungus; compared with ethyl isothiocyanate): more effective
Fungus growth (fungus; fresh cold pressed carrot, red cabbage and beet juice, Examples 28, 21, 13): either prevented or significantly delayed
Fungus growth (fungus; fresh cold pressed pomegranate, blackberry, orange, red grape, apple, blueberry and honeydew juice): either prevented or significantly delayed
Shelf-life of vegetable juices (fungus; fresh, cold pressed tomatillo, lime and green cabbage juices): improved shelf-life
Effectiveness on ginger (fungus; ginger, pre-exposure and sachet method): found effective
Fungus growth (fungus; guar gum and starch, Examples 37, 56 & 57): either prevented or significantly delayed
Shelf-life of raw milk yogurt (fungus; raw milk yogurt): extended shelf-life
Fungus growth (fungus; strawberries, raspberries, blackberries and lychee): either prevented or significantly delayed
Spoilage Time - Sample ([1]; Example 11, Browning, Coriander, 0.25 hr P-E, control 11 days): significantly delayed
Spoilage Time - Sample ([1]; Example 12, Color change, Paneer (Indian cottage cheese), Sachet, control 9 days): 10+ days
Spoilage Time - Sample ([1]; Example 13, Color change, Red cabbage juice, 0.02 g, control 12 days): 13 days
Spoilage Time - Sample ([1]; Example 14, Color change, Blackberry juice, 0.02 g, control 5 days): 12 days
Spoilage Time - Sample ([1]; Example 15, Color change, Tindora, 2 hrs P-E, control 6 days): 17 days
Spoilage Time - Sample ([1]; Example 15, Color change, Tindora, 2 hrs P-E, control 6 days, listed as allyl isothiocyanate): delay of ripening and turning red from green was achieved
Green-to-yellow color change ([1]; Example 30, fresh green chickpeas, sachet, control 7 days): > 9 days
Change in color and softness ([1]; Example 48, puri): There was very little change in color and softness of puri even after 70 days. Other
Change in color and softness ([1]; Example 53, millet bread): There was very little change in color and softness of millet bread even after 70 days.
Color change from green-to-yellow ([1]; Examples 25 & 27, broccoli, vapors, control 5 days): > 16 days
Spoilage Time - Sample ([2]; Example 16, Cream, Raw cow milk, 0.07 g, control 3 days): 24 days
Spoilage Time - Sample ([2]; Example 17, Curdling, Milk (pasteurized, whole milk), 0.10 g, control 2 days): 16 days
Spoilage Time - Sample ([2]; Example 18, Curdling, Milk & Yogurt (whole milk & yogurt) mix, 0.10 g, control 2 days): 16 days
Spoilage Time - Sample ([2]; Example 18, Curdling, Milk & Yogurt (whole milk & yogurt) mix, 0.10 g, control 2 days, listed as allyl isothiocyanate): > 16 days
Spoilage Time - Sample ([2]; Example 19, Curdling, Milk (pasteurized, whole milk), 0.05 g, control 2 days): 28 days
Spoilage Time - Sample ([2]; Example 19, Curdling, Milk (pasteurized, whole milk), 0.05 g, control 2 days, listed as allyl isothiocyanate): > 28 days and > 21 days
Spoilage Time - Sample ([3]; Example 72, 5 ml of 10% allyl isothiocyanate solution in water): 21 days
Spoilage Time - Sample ([3]; Example 72, 5 ml of 10% allyl isothiocyanate solution in water, listed as allyl isothiocyanate): > 21 days
Spoilage Time - Sample ([3]; Example 73, Sachet): 21 days
Spoilage Time - Sample [4]: 12 days
Rise of dough (yeast): did not rise; also recorded: allyl isothiocyanate is capable of killing yeast
Improvements with meat and fish [5]: demonstrated improvements
Shelf-life of flowery vegetables ([6]; flowery vegetables): extended shelf-life
Shelf-life extension ([6]; tindora dipped in solution): demonstrated shelf-life extension
Effectiveness as shelf-life extender ([6]; tofu): effective
Effectiveness for controlling one or more spoilage criteria ([6]; variety of foods): effective to a greater or lesser extent

Source: patent publication US12193465B2, “Materials and methods for extending shelf-life of foods” (JP Laboratories, Inc., priority 2021, dated 2025)
